Data reported in patent US9283277B2, “Methods and compositions for the treatment of obesity” (Children's Medical Center Corporation, priority 2008, dated 2016).

What was measured:
[1] = tested on: HFD-fed obese C57BL/6 wt mice; assay: TUDCA and leptin in HFD-induced obesity model; type: in vivo
Procedure: (a) Hypothalamic PERK phosphorylation (Thr980) after 21 days of vehicle or TUDCA (150 mg/kg/day) treatment. Following a five-day pretreatment with TUDCA (150 mg/kg/day) or vehicle, nine-ten week old ob/ob mice were treated either with leptin (1 mg/kg/day) or vehicle. (b) Body weight (g), (c) % decrease in body weight, (d) daily food intake of the ob/ob mice during 18 days of treatment period with the indicated regimens. (e) Blood glucose (mg/dl) levels at the 18th day of treatment. Metabolic cage studies were performed; (f) CO2 production (ml/kg/hr), (g) O2 consumption (ml/kg/hr), (h) Respiratory exchange ratio (VCO2/VO2), (i) X-axis ambulatory activity, (j) Heat generation (kcal/hr). Dexa scan analysis of (k) total fat amount (g), (l) fat % and (m) lean body mass (g). C57BL/6 male wt mice were kept on HFD feeding for 32 weeks and following a five day acclimation period were pretreated with TUDCA (150 mg/kg/day) for five days. At the end of pretreatment period intraperitoneal vehicle and leptin (1 mg/kg/day) treatments were started. (n) Body weight (g), (o) % decrease in bodyweight of the HFD-fed mice during the 16-day treatment. (n=6 for VEH, n=7 for Lep, n=7 for TUD, n=8 for TUD+Lep group). Error bars are ±S.E.M., P values are determined by Student's t-test. (*p<0.05, **p<0.01, ***p<0.001)
We next tested the efficacy of TUDCA as a leptin sensitizer in the HFD-induced obesity model. In this experiment we used 35 weeks old and C57BL/6 wt mice, which were kept on HFD-feeding for 32 weeks. We divided the mice into two groups for TUDCA and TUDCA-leptin co-treatment. Body weight of the mice in this cohort was between 35-52 g. We specifically chose the mice with the highest bodyweight for TUDCA and leptin co-treatment group to investigate whether leptin will become effective in these severely obese mice when administered along with the TUDCA. The initial body weight of the TUDCA group was 38.33±1.16 (g) and TUDCA+leptin group was 48.46±1.82 (g) (FIG. 5n). Following an initial five days acclimation period mice were treated with TUDCA (150 mg/kg/day) for […], and subsequently either vehicle or […] treatment was started. […] Following the acclimation, TUDCA pretreatment was started and following the five-day pretreatment, vehicle and leptin (1 mg/kg/day) administration were initiated. TUDCA alone led to a significant decrease in bodyweight by reducing the initial weight from 36.16±0.99 (g) to 32.61±0.65 during the 16 days of treatment period (FIG. 5n). This reduction corresponds to an 8.60% decrease in bodyweight (FIG. 5o). […] Indeed, in our experience TUDCA acts as a much more powerful chemical chaperone when compared to PBA, as doses of TUDCA necessary for reducing ER stress in cellular systems^25 or as a leptin-sensitizing agent is much lower than PBA. […]

db/db mice = assay: PBA and leptin co-administration in db/db mice; type: in vivo; details: for body weight / food consumption / food intake: PBA 1 g/kg/day oral and/or leptin 1 mg/kg IP, 16 days
Procedure: Six-week old db/db mice were orally treated with either PBA (1 g/kg/day) or VEH for four days. Following the pretreatment period, leptin receptor-deficient db/db mice were either administered with VEH or leptin (1 mg/kg) through intraperitoneal route for 16 days. (a) Bodyweight (g), (b) percent increase in bodyweight and (c) 24-hour food intake, (d) Blood glucose (mg/dl) levels of the groups. (n=5 in each group). Error bars are ±S.E.M., P values are determined by Student's t-test. (*p<0.05, **p<0.01, ***p<0.001).
We investigated whether the effect created by PBA and leptin combinatory treatment is solely mediated through the LepRb and not due to a non-specific effect. First, we pretreated db/db mice with PBA or vehicle for four days and subsequently initiated the leptin (1 mg/kg) treatment.

[2] = tested on: LepRB signaling (LepRB, Jak2, Stat3); assay: Leptin receptor signaling in LepRB-expressing 293 cells under tunicamycin-induced ER stress; type: cell-based, Human; details: tunicamycin 3 μg/ml (or DMSO) 4 hours, then leptin 100 ng/ml 45 minutes
From the text: The leptin receptor belongs to the interleukin 6 (IL-6) receptor family of class I cytokine receptors^30. […] Binding of leptin to LepRb initiates a conformational change that leads to trans-autophosphorylation and activation of LepRb-associated Jak2^31,32 Activated Jak2 then phosphorylates the tyrosine residues within the LepRb/Jak2 complex to mediate downstream signaling. […] To examine whether UPR might alter the leptin signaling, LepRB-expressing 293 cells were first exposed to tunicamycin (3 μg/ml) to activate ER stress for a period of 4 hours and then treated with leptin (100 ng/ml) for 45 minutes. […] Finally, as a downstream element, leptin-stimulated Stat3 activation was analyzed.

[3] = mice on HFD 32 weeks, TUDCA 150 mg/kg/day with vehicle or leptin 1 mg/kg/day, 16 days

Compound	initial body weight of the group (before acclimation) ([1]; C57BL/6 wt mice on HFD 32 weeks) [g]	body weight after treatment [1, 3] [g]	decrease in bodyweight [1, 3] [%]	initial weight at start of treatment period ([1]; mice on HFD 32 weeks, after acclimation) [g]	body weight (db/db mice)	food consumption / food intake (db/db mice)	blood glucose levels (db/db mice; PBA 1 g/kg/day oral vs vehicle)	leptin-induced Stat3 phosphorylation (Tyr705) [2]	leptin-stimulated LepRB tyrosine phosphorylation [2]
C[C@H](CCC(=O)NCCS(=O)(=O)O)[C@H]1CC[C@H]2[C@@H]3[C@@H](O)C[C@@H]4C[C@H](O)CC[C@]4(C)[C@H]3CC[C@]12C [TUDCA, tauroursodeoxycholic acid]	38.33 ± 1.16	32.61 ± 0.65	8.60	36.16 ± 0.99					
O=C(O)CCCc1ccccc1 [PBA, 4-phenyl butyric acid]					significantly gained weight	no difference	reduced to a significantly lower level		
leptin: adipocyte-derived hormone that suppresses appetite					did not decrease	did not decrease		significant increase	marked increase
